The source of these data is patent publication US12115178B2, “Acylated active agents and methods of their use for the treatment of autoimmune disorders” (Flagship Pioneering Innovations V, Inc., priority 2018, dated 2024).

What all share (format): in vitro ADME
Data set [1] in a line: Assay 3. In vitro Colonic Material Stability Assay. Here is the method:
Assay 3. In vitro Colonic Material Stability Assay. This assay was used to assess the stability of an acylated active agent in a large intestine. All experiments were performed in an anaerobic chamber containing 90% nitrogen, 5% hydrogen and 5% carbon dioxide. Colonic material was resuspended as a slurry (15% w/v final concentration) in pre-reduced, anaerobically sterilized dilution blanks (Anaerobe Systems AS-908). The colonic material was then inoculated into 96 well plates containing YCFAC media (Anaerobe Systems AS-680) or other suitable media (6.7 μL slurry into 1 mL total media). Compounds or groups of compounds were added to each individual well to reach a final analyte concentration of 1 or 10 μM, and the material was mixed by pipetting. Sample was removed after set timepoints (0, 120, 240, 480, 1440, 2880 minutes after initiation of the assay), quenched with acetonitrile containing internal standard, and analyzed by LC/MS.

Data set [2] in a line: Assay 2. Stability in Simulated Intestinal Fluid (SIF). To be noted: SIF pH 6.7 with pancreatin, 1 μM, 37° C. As to the method:
Assay 2. Stability of acylated active agents in Simulated Intestinal Fluid (SIF). This assay was used to assess the stability of an acylated active agent in a small intestine. Phosphate buffer was prepared by dissolving 0.42 g of sodium hydroxide pellets and 3.95 g of monobasic sodium phosphate monohydrate and 6.19 g of sodium chloride in ultrapure water (MilliQ®, Millipore Sigma, Darmstadt, Germany). The pH was adjusted to 6.7 using aq. HCl and aq. NaOH, as necessary, and the solution was diluted with ultrapure water to produce 1 L of the pH 6.7 buffer. 112 mg FaSSIF powder (Biorelevant™, London, UK) was dissolved in 50 mL of the pH 6.7 buffer. 2 to 3 mL of the resulting solution were then added to 500 mg pancreatin (Millipore Sigma, Darmstadt, Germany). The resulting mixture was agitated by finger tapping the vessel containing the mixture until milky suspension formed. At this time, the remainder of the 50 mL FaSSiF/pH 6.7 buffer solution was added. The resulting suspension was flipped upside down 10 times to produce SIF, which was used fresh. Test compounds were dissolved in DMSO stock to 1 mM. An aliquot of the DMSO stock solution was removed and diluted in the SIF media in 15 mL falcon tubes to produce a mixture with a tested compound concentration of 1 μM. A 1 mL aliquot was immediately removed and diluted once with 1 volume of acetonitrile for T0 timepoint. The mixture was sealed and agitated at 37° C. in an incubator. Aliquots (1 mL) were removed at regular intervals and immediately quenched by the addition of 1 volume of acetonitrile. The resulting samples were analyzed by LC/MS to determine degradation rates.

Data set [3] is described as follows: Assay 1. Stability in Simulated Gastric Fluid (SGF). To be noted: SGF pH 1.6 with pepsin, 1 μM, 37° C. As to the method:
Assay 1. Stability of acylated active agents in Simulated Gastric Fluid (SGF). This assay was used to assess the stability of an acylated active agent in a stomach.
Medium was prepared by dissolving 2 g of sodium chloride in 0.6 L in ultrapure water (MilliQ®, Millipore Sigma, Darmstadt, Germany). The pH was adjusted to 1.6 with 1N hydrochloric acid, and the volume was then adjusted to 1 L with purified water.
60 mg FaSSIF powder (Biorelevant™, London, UK) were dissolved in 500 mL buffer (above). Pepsin was added (0.1 mg/mL) (Millipore Sigma, Darmstadt, Germany), and the solution was stirred. The resulting SGF media were used fresh for each experiment.
Test compounds were dissolved in DMSO stock to 1 mM. An aliquot of the DMSO stock solution was removed and diluted in the SGF Media in 15 mL falcon tubes to generate a total compound concentration of 1 μM. A 1 mL aliquot was immediately removed and diluted once with 1 volume of acetonitrile for T0 timepoint. The mixture was sealed and mixed at 37° C. in an incubator. Aliquots (1 mL) were removed at regular intervals and immediately quenched by the addition of 1 volume of acetonitrile. The resulting samples were analyzed by LC/MS to determine degradation rates in SGF.

Setting [4] is: colonic material slurry, anaerobic, 1 or 10 μM.

For the compound `CCCC(=O)O[C@@H]1[C@H](OC(=O)CCC)C=C(C(=O)O)C[C@H]1OC(=O)CCC` [Compound 218, (3R,4S,5R)-3,4,5-tris(butanoyloxy)cyclohex-1-ene-1-carboxylic acid], in data set [1] (setting [4]), the “Assay 3 (% Remaining at 24 h)” value is on record as “B (25-75% of the tested compound remaining)”.
For the compound `CCC(=O)O[C@@H]1[C@H](OC(=O)CC)C=C(C(=O)O)C[C@H]1OC(=O)CC` [Compound 217, (3R,4S,5R)-3,4,5-tris(propanoyloxy)cyclohex-1-ene-1-carboxylic acid], in data set [1] (setting [4]), the “Assay 3 (% Remaining at 24 h)” value is listed as “B (25-75% of the tested compound remaining)”.
Same read-out and setting: to `CC(=O)O[C@@H]1[C@H](OC(C)=O)C=C(C(=O)O)C[C@H]1OC(C)=O` [Compound 215, (3R,4S,5R)-3,4,5-triacetoxycyclohex-1-ene-1-carboxylic acid] belongs “B (25-75% of the tested compound remaining)”; to `[2H]C([2H])([2H])C([2H])([2H])CC(=O)O[C@@H]1[C@@H](OC(=O)CC([2H])([2H])C([2H])([2H])[2H])[C@H](Oc2ccc(N)cc2C(=O)O)OC[C@H]1OC(=O)CC([2H])([2H])C([2H])([2H])[2H]` [Compound 189, 5-amino-2-{[(2S,3R,4S,5R)-3,4,5-tris[(3,3,4,4,4-^2H5)butanoyloxy]oxan-2-yl]oxy}benzoic acid], “B (25-75% of the tested compound remaining)”.
Take `[2H]C([2H])([2H])C([2H])([2H])CC(=O)O[C@@H]1[C@@H](OC(=O)CC([2H])([2H])C([2H])([2H])[2H])[C@H](Oc2ccc(N)cc2C(=O)O)OC[C@H]1O` [Compound 192, 5-amino-2-{[(2S,3R,4S,5R)-3,4-bis[(3,3,4,4,4-^2H5)butanoyloxy]-5-hydroxyoxan-2-yl]oxy}benzoic acid]: the “Assay 3 (% Remaining at 24 h)” value in data set [1] (setting [4]) was “B (25-75% of the tested compound remaining)”.
On to `O=C(CCc1c[nH]c2ccccc12)O[C@@H]1[C@H](OC(=O)CCc2c[nH]c3ccccc23)C=C(C(=O)O)C[C@H]1OC(=O)CCc1c[nH]c2ccccc12` [Compound 216, (3R,4S,5R)-3,4,5-tris({[3-(1H-indol-3-yl)propanoyl]oxy})cyclohex-1-ene-1-carboxylic acid], for which, in data set [2], the “Assay 2 (SIF) (% @ Remaining 4 hours)” value is recorded as “B (25-75% of the tested compound remaining)”. Moreover, the “Assay 1 (SGF) (% Remaining @ 1 hour)” value in data set [3] was “B (25-75% of the tested compound remaining)”.
On to `CCCC(=O)Oc1cc(OC(=O)CCC)c2c(=O)c(OC(=O)CCC)c(-c3ccc(OC(=O)CCC)c(OC(=O)CCC)c3)oc2c1` [Compound 181, [2-butanoyloxy-4-[3,5,7-tri(butanoyloxy)-4-oxo-chromen-2-yl]phenyl] butanoate], for which the “Assay 2 (SIF) (% @ Remaining 4 hours)” value in data set [2] is listed as “A (<25% of the tested compound remaining)”. Further, the “Assay 1 (SGF) (% Remaining @ 1 hour)” value in data set [3] is “C (>75% of the tested compound remaining)”.
The like results for `CCC(=O)O[C@@H]1[C@@H](OC(=O)CC)[C@H](Oc2ccccc2C(=O)O)OC[C@H]1OC(=O)CC` [Compound 27, 2-(((2S,3R,4S,5R)-3,4,5-tris(propionyloxy)tetrahydro-2H-pyran-2-yl)oxy)benzoic acid] were, in that order, “B (25-75% of the tested compound remaining)” and “C (>75% of the tested compound remaining)”.
In the case of `CCC(=O)O[C@@H]1[C@@H](OC(=O)CC)[C@H](Oc2ccccc2C(=O)O)OC[C@@H]1OC(=O)CC` [Compound 26, 2-(((2S,3R,4S,5S)-3,4,5-tris(propionyloxy)tetrahydro-2H-pyran-2-yl)oxy)benzoic acid], the “Assay 2 (SIF) (% @ Remaining 4 hours)” value in data set [2] was “A (<25% of the tested compound remaining)”. In addition, in data set [3], the “Assay 1 (SGF) (% Remaining @ 1 hour)” value is reported as “C (>75% of the tested compound remaining)”.
Taken in the same sequence, the figures for `CCCC(=O)O[C@@H]1[C@H](OC(=O)CCC)[C@H](C)OC(O)[C@H]1OC(=O)CCC` (stereo partly drawn) [Compound 136, (3S,4R,5R,6S)-4,5-bis(butanoyloxy)-2-hydroxy-6-methyloxan-3-yl butanoate] were “A (<25% of the tested compound remaining)” and “C (>75% of the tested compound remaining)”.
For `C[C@@H]1OC(OC(=O)CCc2c[nH]c3ccccc23)[C@H](OC(=O)CCc2c[nH]c3ccccc23)[C@H](OC(=O)CCc2c[nH]c3ccccc23)[C@H]1OC(=O)CCc1c[nH]c2ccccc12` (stereo partly drawn) [Compound 147, (3R,4R,5S,6S)-3,4,5-tris({[3-(1H-indol-3-yl)propanoyl]oxy})-6-methyloxan-2-yl 3-(1H-indol-3-yl)propanoate], the “Assay 3 (% Remaining at 24 h)” value in data set [1] (setting [4]) is “A (<25% of the tested compound remaining)”.
For the compound `CCCC(=O)Oc1cc(OC(=O)CCC)c2c(c1)O[C@H](c1cc(OC(=O)CCC)c(OC(=O)CCC)c(OC(=O)CCC)c1)[C@H](OC(=O)c1cc(OC(=O)CCC)c(OC(=O)CCC)c(OC(=O)CCC)c1)C2` [Compound 198, [(2R,3R)-5,7-di(butanoyloxy)-2-[3,4,5-tri(butanoyloxy)phenyl]chroman-3-yl] 3,4,5-tri(butanoyloxy)benzoate], the “Assay 3 (% Remaining at 24 h)” value is reported as “C (>75% of the tested compound remaining)” in data set [1] (Run 1, colonic material); “C (>75% of the tested compound remaining)” in data set [1] (Run 2, colonic material); “B (25-75% of the tested compound remaining)” in data set [1] (Run 3, colonic material).
Regarding `CCC(=O)Oc1ccc2c(c1)oc(=O)c1cc(OC(=O)CC)c(OC(=O)CC)cc12` [Compound 204, [6-oxo-8,9-di(propanoyloxy)benzo[c]chromen-3-yl] propanoate], in data set [2], the “Assay 2 (SIF) (% @ Remaining 4 hours)” value was “A (<25% of the tested compound remaining)”. Besides, in data set [3], the “Assay 1 (SGF) (% Remaining @ 1 hour)” value is recorded as “C (>75% of the tested compound remaining)”.
Consider `CCCC(=O)Oc1cc(OC(=O)CCC)c2c(=O)c(OC(=O)CCC)c(-c3cc(OC(=O)CCC)c(OC(=O)CCC)c(OC(=O)CCC)c3)oc2c1` [Compound 169, 3,5-bis(butanoyloxy)-4-oxo-2-[3,4,5-tris(butanoyloxy)phenyl]-4H-chromen-7-yl butanoate], for which the “Assay 2 (SIF) (% @ Remaining 4 hours)” value in data set [2] is given as “C (>75% of the tested compound remaining)”. Further, the “Assay 1 (SGF) (% Remaining @ 1 hour)” value in data set [3] is on record as “C (>75% of the tested compound remaining)”.
On to `CCCC(=O)O[C@@H]1[C@@H](OC(=O)CCC)[C@@H](Oc2ccccc2C(=O)O)OC[C@@H]1OC(=O)CCC` [Compound 31, 2-(((2R,3R,4S,5S)-3,4,5-tris(butyryloxy)tetrahydro-2H-pyran-2-yl)oxy)benzoic acid], for which the “Assay 2 (SIF) (% @ Remaining 4 hours)” value in data set [2] is listed as “A (<25% of the tested compound remaining)”. For the same compound, the “Assay 1 (SGF) (% Remaining @ 1 hour)” value in data set [3] is reported as “C (>75% of the tested compound remaining)”.
On to `CC(=O)Oc1cc(OC(C)=O)c2c(c1)O[C@H](c1cc(OC(C)=O)c(OC(C)=O)c(OC(C)=O)c1)[C@H](OC(=O)c1cc(OC(C)=O)c(OC(C)=O)c(OC(C)=O)c1)C2` [Compound 197, [(2R,3R)-5,7-diacetoxy-2-(3,4,5-triacetoxyphenyl)chroman-3-yl] 3,4,5-triacetoxybenzoate], for which the “Assay 3 (% Remaining at 24 h)” value in data set [1] (setting [4]) was “A (<25% of the tested compound remaining)”.
For the compound `CC(=O)Oc1cc(C(=O)O)cc(OC(C)=O)c1OC(C)=O` [Compound 199, 3,4,5-triacetoxybenzoic acid], in data set [2], the “Assay 2 (SIF) (% @ Remaining 4 hours)” value was “B (25-75% of the tested compound remaining)”. Also, in data set [3], the “Assay 1 (SGF) (% Remaining @ 1 hour)” value is “C (>75% of the tested compound remaining)”.
Take `CCCC(=O)O[C@H]1[C@@H](OC(=O)CCC)COC(O)[C@@H]1OC(=O)CCC` (stereo partly drawn) [Compound 151, (3S,4S,5R)-4,5-bis(butanoyloxy)-6-hydroxyoxan-3-yl butanoate]: the “Assay 2 (SIF) (% @ Remaining 4 hours)” value in data set [2] is “A (<25% of the tested compound remaining)”. In addition, the “Assay 1 (SGF) (% Remaining @ 1 hour)” value in data set [3] is given as “C (>75% of the tested compound remaining)”.
